Legend:
[1] = Solubility in FaSSIF (pH 6.5) and FeSSIF (pH 5.0) buffer solutions; type: physicochemical; conditions: for 24-hour solubility in buffer solutions with different pH values pH6.5: FaSSIF (pH 6.5); for 24-hour solubility in buffer solutions with different pH values pH6.5 / 24-hour solubility in buffer solutions with different pH values pH5.0: 37 °C, shaken 24 h; for 24-hour solubility in buffer solutions with different pH values pH5.0: FeSSIF (pH 5.0); for solubility compared with the compound of formula (I): test solutions at pH 5.0 and pH 6.5
Procedure: Test substances: the crystal forms I, II, III, and IV of the methanesulfonate of the compound of formula (I).
• 1) 0.42 g of NaOH, 3.44 g of anhydrous NaH2PO4, and 6.19 g of NaCl were dissolved in about 0.9 L of pure water; • 2) the pH was adjusted to 6.5 using 1 N NaOH or 1 N HCl, and the buffer solution was supplemented to the volume of 1 L with pure water at room temperature; • 3) 2.24 g of FaSSIF powder was added to about 0.5 L of the buffer solution, and the mixture was stirred until the powder was completely dissolved; the resulting solution was supplemented to the volume of 1 L with the buffer solution at room temperature, and after being left to stand for 2 h, it was ready for use.
• 1) 4.04 g of NaOH, 8.65 g of glacial acetic acid, and 11.87 g of NaCl were dissolved in about 0.9 L of pure water; • 2) the pH was adjusted to 5.0 using 1 N NaOH or 1 N HCl, and the buffer solution was supplemented to the volume of 1 L with pure water at room temperature; • 3) 11.2 g of FeSSIF powder was added to about 0.5 L of the buffer solution, and the mixture was stirred until the powder was completely dissolved; the resulting solution was supplemented to the volume of 1 L with the buffer solution at room temperature, and after being left to stand for 2 h, it was ready for use.
An appropriate amount of each test substance was placed into separate 10 mL PE tubes, and FaSSIF (pH 6.5) buffer solution and FeSSIF (pH 5.0) buffer solution, each 10 mL, were added into the tubes, respectively. The tubes were then placed in a constant temperature water bath shaker and shaken at 37 °C for 24 h. After 24 h, samples were collected and centrifuged. The supernatants were diluted, and the solubility of the supernatants was measured.

[2] = PK evaluation of crystal forms in rats; type: in vivo; conditions: SD rats, PO 60 mg/kg
Procedure: The experimental crystal forms I and II of the methanesulfonate of the compound of formula (I) were each prepared into a suspension solution with 0.5% HPMC. The compound solutions were intragastrically administered to SD rats at a dose of 60 mg/kg. Blood samples were collected at time points of 15 min, 30 min, 1 h, 2 h, 4 h, 6 h, 8 h, 24 h, 48 h, 72 h, and 96 h after administration.
The animals were fixed, with tails warmed in a water bath 10 min before each sampling time point. About 100 µL of blood was collected via the tail vein, and the blood samples were collected in anticoagulation tubes containing EDTA-K2. The blood samples were then centrifuged at 8,000 rpm for 6 min at 4 °C to give plasma samples. The plasma samples were prepared within 30 min after blood collection. The plasma samples were stored in a refrigerator at -80 °C before the test.
The sample to be tested was taken out from the -80 °C refrigerator, naturally thawed at room temperature, and vortexed for 5 min. 20 µL of plasma sample was precisely pipetted to a 1.5 mL centrifuge tube, and 200 µL of internal standard working solution (a solution of tolbutamide in methanol, 100 ng/mL) was added. The resulting mixture was thoroughly mixed, vortexed for 5 min, and centrifuged at 12,000 rpm for 5 min. 50 µL of supernatant was precisely pipetted to a 96-well plate pre-loaded with 150 µL of water per well, and the resulting mixture was vortexed for 5 min and then used for LC-MS/MS analysis.
The concentrations of the test samples were calculated by Analyst 1.6.3 from AB Sciex. Parameters such as mean, standard deviation, and coefficient of variation (excluding those output directly by Analyst 1.6.3) were calculated by Microsoft Excel. PK parameters were calculated by Pharsight Phoenix 6.1 software NCA (Tmax was in median).

[3] = Stability test under influencing factors (high temperature, high humidity, illumination); type: physicochemical; conditions: for changes in the appearance and purity: left to stand under conditions of the influencing factors for 30 days
Procedure: Test substances: the crystal forms I, II, III, and IV of the methanesulfonate of the compound of formula (I) of the present disclosure.
Methodology: Appropriate amounts of samples of the crystal forms I, II, III, and IV of the methanesulfonate of the compound of formula (I) were separately left to stand open under the conditions of a high temperature (60 °C), a high humidity (RH 92.5%), and illumination (4500±500 Lux); sampling was performed on days 5, 10, and 30 to investigate changes in the appearance, purity, and crystal form of the samples.

[4] = Left to stand open at 60 °C for 5 days
[5] = Left to stand open at 60 °C for 10 days
[6] = Left to stand open at 60 °C for 30 days
[7] = Left to stand open at RH 92.5% for 5 days
[8] = Left to stand open at RH 92.5% for 10 days
[9] = Left to stand open at RH 92.5% for 30 days
[10] = Left to stand open under illumination (4500±500 Lux) for 5 days
[11] = Left to stand open under illumination (4500±500 Lux) for 10 days
[12] = Left to stand open under illumination (4500±500 Lux) for 30 days

24-hour solubility in buffer solutions with different pH values pH6.5 [1] [mg/mL]	24-hour solubility in buffer solutions with different pH values pH5.0 [1] [mg/mL]	Appearance ([3]; 0 days)	Purity ([3]; 0 days) [%]	Appearance [3, 4]	Purity [3, 4] [%]	Appearance [3, 5]	Purity [3, 5] [%]	Appearance [3, 6]	Purity [3, 6] [%]	Appearance [3, 7]	Purity [3, 7] [%]	Appearance [3, 8]	Purity [3, 8] [%]	Appearance [3, 9]	Purity [3, 9] [%]	Appearance [3, 10]	Purity [3, 10] [%]	Appearance [3, 11]	Purity [3, 11] [%]	SMILES	further results
0.0002	0.004	–	–	–	–	–	–	–	–	–	–	–	–	–	–	–	–	–	–	COc1cc2nccc(Oc3ccc(NC(=O)c4nn(C(C)C)cc(-c5ccc(F)cc5)c4=O)nc3)c2cc1OC [Compound of formula (I), N-(5-((6,7-dimethoxyquinolin-4-yl)oxy)pyridin-2-yl)-5-(4-fluorophenyl)-1-isopropyl-4-oxo-1,4-dihydropyridazine-3-carboxamide]	–
0.023	0.31	White or off-white solid	99.74	White or off-white solid	99.74	White or off-white solid	99.73	White or off-white solid	99.72	White or off-white solid	99.74	White or off-white solid	99.74	White or off-white solid	99.74	White or off-white solid	99.75	White or off-white solid	99.74	COc1cc2nccc(Oc3ccc(NC(=O)c4nn(C(C)C)cc(-c5ccc(F)cc5)c4=O)nc3)c2cc1OC [Crystal form II, N-(5-((6,7-dimethoxyquinolin-4-yl)oxy)pyridin-2-yl)-5-(4-fluorophenyl)-1-isopropyl-4-oxo-1,4-dihydropyridazine-3-carboxamide]	AUClast ([2]; 0-96 h, n = 3): 3054.395 µg·h/mL; Cmax ([2]; n = 3): 58.933 µg/mL; λ_z ([2]; n = 3, suspension in 0.5% HPMC): 0.026 h⁻¹; Tmax ([2]; median, n = 3): 6.00 h; tz1/2 ([2]; terminal half-life, n = 3): 27.0 h; Appearance [3, 12]: White or off-white solid; Purity [3, 12]: 99.75%; changes in the appearance and purity [3]: no significant changes; solubility compared with the compound of formula (I) [1]: significantly improved
0.023	0.025	White or off-white solid	99.90	White or off-white solid	99.90	White or off-white solid	99.90	White or off-white solid	99.89	White or off-white solid	99.90	White or off-white solid	99.90	White or off-white solid	99.90	White or off-white solid	99.90	White or off-white solid	99.91	COc1cc2nccc(Oc3ccc(NC(=O)c4nn(C(C)C)cc(-c5ccc(F)cc5)c4=O)nc3)c2cc1OC [Crystal form III, N-(5-((6,7-dimethoxyquinolin-4-yl)oxy)pyridin-2-yl)-5-(4-fluorophenyl)-1-isopropyl-4-oxo-1,4-dihydropyridazine-3-carboxamide]	Appearance [3, 12]: White or off-white solid; Purity [3, 12]: 99.91%; changes in the appearance and purity [3]: no significant changes; solubility compared with the compound of formula (I) [1]: significantly improved
0.023	0.31	White or off-white solid	99.91	White or off-white solid	99.91	White or off-white solid	99.91	White or off-white solid	99.87	White or off-white solid	99.92	White or off-white solid	99.92	White or off-white solid	99.92	White or off-white solid	99.91	White or off-white solid	99.91	COc1cc2nccc(Oc3ccc(NC(=O)c4nn(C(C)C)cc(-c5ccc(F)cc5)c4=O)nc3)c2cc1OC [Crystal form IV, N-(5-((6,7-dimethoxyquinolin-4-yl)oxy)pyridin-2-yl)-5-(4-fluorophenyl)-1-isopropyl-4-oxo-1,4-dihydropyridazine-3-carboxamide]	Appearance [3, 12]: White or off-white solid; Purity [3, 12]: 99.88%; changes in the appearance and purity [3]: no significant changes; solubility compared with the compound of formula (I) [1]: significantly improved

— EP4582418A1, “CRYSTALLINE FORM OF QUINOLINE DERIVATIVE INHIBITOR, PREPARATION METHOD THEREFOR AND USE THEREOF” (TransThera Sciences (Nanjing), Inc., priority 2022, dated 2024)
